According to ChEMBL document CHEMBL5518171, “Curcumin hybrid molecules for the treatment of Alzheimer's disease: Structure and pharmacological activities” (Eur J Med Chem, 2024):
pEC50, pIC50: −log10 of the molar value.

Legend:
[1] = Neuroprotective activity against human MC65 cells assessed as increase in cell viability incubated for 72 hrs in absence of tetracycline by MTT assay; format: functional, cell-based; conditions: MC65, 72 h
[2] = target: Acetylcholinesterase (Electrophorus electricus, UniProt O42275)
Description: Inhibition of Electric eel AChE using acetylthiocholine iodide as substrate incubated for 15 mins by Ellman's method

[3] = target: Cholinesterase (Equus caballus, UniProt P81908); assay: Inhibition of equine BChE using BTCh as substrate incubated for 5 mins by Ellmans method
[4] = Antioxidant activity assessed as ROS scavenging activity; format: functional
[5] = target: Cholinesterase (Equus caballus) (UniProt P81908); assay: Inhibition of equine BChE at 100 uM by Ellman's method relative to control
[6] = target: T1, Amine oxidase [flavin-containing] A (Homo sapiens, UniProt P21397); assay: Inhibition of human MAO-A using p-tyramine as substrate at 100 uM incubated for 15 mins by Amplex red and horseradish peroxidase based fluorescence assay relative to control; conditions: 0.25 h
T1 sequence (P21397 whole entry): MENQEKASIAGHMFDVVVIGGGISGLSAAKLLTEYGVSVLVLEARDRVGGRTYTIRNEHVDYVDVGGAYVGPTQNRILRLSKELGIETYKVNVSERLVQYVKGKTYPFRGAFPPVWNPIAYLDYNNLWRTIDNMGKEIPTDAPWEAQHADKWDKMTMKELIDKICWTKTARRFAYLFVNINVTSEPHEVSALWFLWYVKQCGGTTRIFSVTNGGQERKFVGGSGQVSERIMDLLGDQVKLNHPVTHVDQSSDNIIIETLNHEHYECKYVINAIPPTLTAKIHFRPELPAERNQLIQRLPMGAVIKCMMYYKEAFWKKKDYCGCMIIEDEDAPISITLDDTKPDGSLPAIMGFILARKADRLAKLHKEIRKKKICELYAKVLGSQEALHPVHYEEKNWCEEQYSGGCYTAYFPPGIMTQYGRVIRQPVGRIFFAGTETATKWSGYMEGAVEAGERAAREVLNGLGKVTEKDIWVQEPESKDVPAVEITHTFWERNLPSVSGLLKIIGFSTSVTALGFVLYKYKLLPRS

[7] = target: T2, Amine oxidase [flavin-containing] B (Homo sapiens, UniProt P27338); assay: Inhibition of human MAO-B using p-tyramine as substrate at 100 uM incubated for 15 mins by Amplex red and horseradish peroxidase based fluorescence assay; conditions: 0.25 h
T2 sequence (P27338 whole entry): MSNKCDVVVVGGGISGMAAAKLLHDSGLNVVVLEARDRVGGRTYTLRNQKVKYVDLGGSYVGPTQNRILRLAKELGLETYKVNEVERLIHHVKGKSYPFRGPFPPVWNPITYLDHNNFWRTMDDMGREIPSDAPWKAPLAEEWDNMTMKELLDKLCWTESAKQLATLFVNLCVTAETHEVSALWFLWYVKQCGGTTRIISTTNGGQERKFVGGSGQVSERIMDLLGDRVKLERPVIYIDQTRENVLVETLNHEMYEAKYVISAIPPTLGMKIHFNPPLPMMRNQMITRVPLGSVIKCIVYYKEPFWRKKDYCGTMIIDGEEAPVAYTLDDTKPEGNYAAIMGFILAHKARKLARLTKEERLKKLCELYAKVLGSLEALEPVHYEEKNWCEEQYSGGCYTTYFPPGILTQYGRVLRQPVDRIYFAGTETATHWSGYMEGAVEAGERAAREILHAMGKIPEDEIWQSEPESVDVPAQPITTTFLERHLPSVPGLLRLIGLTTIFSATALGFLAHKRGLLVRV

[8] = Antioxidant activity assessed as DPPH radical scavenging activity at 80 uM incubated for 1 hr by DPPH assay relative to control; format: functional
[9] = Antioxidant activity assessed as DPPH radical scavenging activity st 80 uM incubated for 1 hr by DPPH assay; format: functional
[10] = system: SH-SY5Y; assay: Antioxidant activity in human SH-SY5Y cells assessed as increase in intracellular GSH level at 10 uM incubated for 24 hrs by […] staining based fluorescence analysis; format: functional
[11] = Antioxidant activity assessed as DPPH radical scavenging activity by spectrophotometric analysis; format: functional
[12] = Antioxidant activity assessed as DPPH radical scavenging activity measured after 30 mins by UV-visible spectrophotometric analysis; format: functional
[13] = system: N2a; assay: Antiproliferative activity against mouse Neuro2a cells assessed as reduction in cell viability incubated for 72 hrs by MTT assay; format: functional, cell-based

Chain of Cholinesterase (P81908 whole entry): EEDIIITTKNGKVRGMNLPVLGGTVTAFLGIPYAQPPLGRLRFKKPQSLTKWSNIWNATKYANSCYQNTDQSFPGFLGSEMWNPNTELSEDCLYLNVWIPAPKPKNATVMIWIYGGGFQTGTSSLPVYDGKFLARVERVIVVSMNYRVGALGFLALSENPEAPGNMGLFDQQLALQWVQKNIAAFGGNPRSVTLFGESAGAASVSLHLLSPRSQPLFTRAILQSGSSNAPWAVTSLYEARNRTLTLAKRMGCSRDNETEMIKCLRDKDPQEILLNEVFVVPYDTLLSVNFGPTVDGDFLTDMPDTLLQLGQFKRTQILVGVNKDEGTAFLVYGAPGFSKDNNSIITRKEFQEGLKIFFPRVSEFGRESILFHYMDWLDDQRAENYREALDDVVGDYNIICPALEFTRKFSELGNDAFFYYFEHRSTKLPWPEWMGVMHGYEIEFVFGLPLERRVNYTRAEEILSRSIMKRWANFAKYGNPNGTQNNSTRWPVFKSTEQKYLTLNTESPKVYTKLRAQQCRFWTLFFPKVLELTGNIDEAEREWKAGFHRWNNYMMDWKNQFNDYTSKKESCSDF
Chain of Cholinesterase (Equus caballus) (P81908 whole entry): as above
Chain of Acetylcholinesterase (O42275 whole entry): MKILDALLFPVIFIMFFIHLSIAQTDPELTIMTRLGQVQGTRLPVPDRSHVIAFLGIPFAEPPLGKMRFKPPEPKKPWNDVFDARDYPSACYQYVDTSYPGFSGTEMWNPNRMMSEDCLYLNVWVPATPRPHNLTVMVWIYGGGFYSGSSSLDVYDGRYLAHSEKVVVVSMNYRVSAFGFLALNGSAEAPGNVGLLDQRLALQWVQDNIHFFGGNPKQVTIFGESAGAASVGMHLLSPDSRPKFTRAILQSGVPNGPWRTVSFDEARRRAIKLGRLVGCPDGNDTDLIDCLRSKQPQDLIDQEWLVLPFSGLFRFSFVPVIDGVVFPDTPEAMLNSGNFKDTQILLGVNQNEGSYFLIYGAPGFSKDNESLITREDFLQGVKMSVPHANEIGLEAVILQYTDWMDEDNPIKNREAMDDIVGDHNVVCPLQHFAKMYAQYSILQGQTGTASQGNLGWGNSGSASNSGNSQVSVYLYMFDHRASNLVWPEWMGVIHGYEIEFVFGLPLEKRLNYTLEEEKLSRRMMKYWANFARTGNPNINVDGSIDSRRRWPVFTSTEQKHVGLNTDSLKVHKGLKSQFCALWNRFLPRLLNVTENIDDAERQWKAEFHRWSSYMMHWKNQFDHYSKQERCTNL

With `COc1ccc2[nH]cc(CCNC(=O)CC(=O)/C=C/c3ccc(O)c(OC)c3)c2c1` as the compound, how does the pEC50 [1] read?
Its pEC50 is 6.87.

With `COc1cc(/C=C/C(=O)OCCCCCN(C)Cc2cccc(OC(=O)N(C)C)c2)ccc1O` as the compound, how does the pIC50 [2] read?
The pIC50 was 7.71.

What about the pIC50 [3] of the same compound?
Its pIC50 is 6.23.

With `CCCCN1C(=O)/C(=C(O)/C=C/c2cc(OC)c(OC)c(OC)c2)C(C(=O)OCC)=C1C` as the compound, how does the Activity [4] read?
Its Activity is 61%.

With `O=C(/C=C/c1cc(O)c(O)cc1O)CC(=O)/C=C/c1cc2ccc(O)c(O)c2oc1=O` as the compound, how does the inhibition [5] read?
Its inhibition is 43.3%.

And the inhibition at 100 µM [6]?
The inhibition at 100 µM was 60.9%.

And the inhibition at 100 µM [7]?
The inhibition at 100 µM was 45.8%.

With `COc1ccc2[nH]cc(CCNC(=O)CC(=O)/C=C/c3ccc(O)cc3)c2c1` as the compound, how does the pEC50 [1] read?
Its pEC50 is 7.64.

With `O=C(/C=C/c1ccc(O)c(O)c1)NN=C1CCN(Cc2ccccc2)CC1` as the compound, how does the Activity [8] read?
The Activity was 45%.

What about the Activity [9] of the same compound?
The Activity was 45%.

What about the Activity [10] of the same compound?
Its Activity is 33%.

With `COc1cc(/C=C/C(=O)NN=C2CCN(Cc3ccccc3)CC2)ccc1O` as the compound, how does the Activity [8] read?
Its Activity is 53.4%.

And the Activity [9]?
The Activity was 53.4%.

What about the Activity [10] of the same compound?
Its Activity is 34%.

Which Activity [11] does the source give for `CCCCN1C(=O)/C(=C(O)/C=C/c2ccc(O)c(OC)c2)C(C(=O)OC)=C1C` here?
Its Activity is 8.87%.

With `CCCCN1C(=O)/C(=C(O)/C=C/c2cc(OC)c(OC)c(OC)c2)C(C(=O)OC)=C1C` as the compound, how does the Activity [12] read?
Its Activity is 10.8%.

With `COc1ccc(/C=C/C(=O)CCCCN2CC[C@@]34C=C[C@H](O)C[C@@H]3Oc3c(OC)ccc(c34)C2)cc1` as the compound, how does the pIC50 [13] read?
Its pIC50 is 4.30.
